# Test results reported in ChEMBL document CHEMBL1201862, “PubChem BioAssay data set” (2004).
# Calls of active or inactive are those of the source.
# How the values were obtained:
# [1] = target: CAAX prenyl protease 2 (Homo sapiens, UniProt Q9Y256); assay: human Rce1 protease inhibitors, dose response, biochemical, yeast membranes, quenched-peptide fluorescence, cherry-pick (AID 588849)
# [2] = target: Trypsin (Sus scrofa, UniProt P00761); assay: porcine trypsin inhibitors, dose response, selectivity assay for Rce1 protease inhibitor project, biochemical, quenched peptide fluorescence, cherry-pick (AID 488789)
# [3] = Luminescence Cell-Based Dose Response HTS to Identify Activators of Luciferase Translation or Activity in H4 […] Cells. [Related pubchem assays: 1829 (Project Summary), 1814 (Primary HTS)]; type: functional
# [4] = Luminescence Cell-Based Dose Confirmation HTS to Identify Activators of 5'UTR Stem-Loop Driven Alpha-Synuclein mRNA Translation in H4 Neuroglioblastoma Cells. [Related pubchem assays: 1829 (Project Summary), 1814 (Primary HTS)]; type: functional
# [5] = target: T1, RNA-binding protein pos-1 (Caenorhabditis elegans, UniProt G5EF15); assay: inhibitors of POS-1/mex-3 RNA binding, dose response, biochemical, fluorescence polarization (AID 1964);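 note: purified POS-1 fused to maltose binding protein made in E. coli; potency of compounds blocking POS-1 binding to fluorescent RNA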
# T1 sequence (G5EF15 whole entry): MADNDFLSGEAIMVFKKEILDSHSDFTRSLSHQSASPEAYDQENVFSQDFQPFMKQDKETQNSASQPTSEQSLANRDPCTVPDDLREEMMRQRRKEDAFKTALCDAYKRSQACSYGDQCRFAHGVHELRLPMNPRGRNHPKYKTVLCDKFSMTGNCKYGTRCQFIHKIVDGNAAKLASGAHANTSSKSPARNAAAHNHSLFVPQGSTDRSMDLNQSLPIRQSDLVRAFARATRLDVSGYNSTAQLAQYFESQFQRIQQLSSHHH
# [6] = system: Vero; assay: cells; type: functional; settings: Chlorocebus sabaeus
# [7] = system: H4; assay: Luminescence Cell-Based Dose Response HTS to Identify Activators of 5'UTR Stem-Loop Driven Prion Protein mRNA Translation in H4 Neuroglioblastoma Cells. [Related pubchem assays: 1829 (Project Summary), 1814 (Primary HTS)]; type: functional; settings: Homo sapiens
# [8] = Luminescence Cell-Based Dose Response HTS to Identify Activators of 5'UTR Stem-Loop Driven Prion Protein mRNA Translation in H4-C Neuroglioblastoma Cells. [Related pubchem assays: 1829 (Project Summary), 1814 (Primary HTS)]; type: functional
# [9] = Luminescence Cell-Based Dose Response HTS to Identify Activators of Luciferase Translation or Activity in H4-C Neuroglioblastoma Cells. [Related pubchem assays: 1829 (Project Summary), 1814 (Primary HTS)]; type: functional
# [10] = Luminescence Cell-Based Dose Retest to Confirm Activators of 5'UTR Stem-Loop Driven Alpha-Synuclein mRNA Translation in H4 Neuroglioblastoma Cells. [Related pubchem assays (depositor defined):AID1813, AID1829]; type: functional
# [11] = target: T2, Zinc finger protein mex-5 (Caenorhabditis elegans, UniProt Q9XUB2); assay: MEX-5/TCR-2 RNA interaction inhibitors, dose response, biochemical, C. elegans, fluorescence polarization (AID 1960)
# T2 sequence (Q9XUB2 whole entry): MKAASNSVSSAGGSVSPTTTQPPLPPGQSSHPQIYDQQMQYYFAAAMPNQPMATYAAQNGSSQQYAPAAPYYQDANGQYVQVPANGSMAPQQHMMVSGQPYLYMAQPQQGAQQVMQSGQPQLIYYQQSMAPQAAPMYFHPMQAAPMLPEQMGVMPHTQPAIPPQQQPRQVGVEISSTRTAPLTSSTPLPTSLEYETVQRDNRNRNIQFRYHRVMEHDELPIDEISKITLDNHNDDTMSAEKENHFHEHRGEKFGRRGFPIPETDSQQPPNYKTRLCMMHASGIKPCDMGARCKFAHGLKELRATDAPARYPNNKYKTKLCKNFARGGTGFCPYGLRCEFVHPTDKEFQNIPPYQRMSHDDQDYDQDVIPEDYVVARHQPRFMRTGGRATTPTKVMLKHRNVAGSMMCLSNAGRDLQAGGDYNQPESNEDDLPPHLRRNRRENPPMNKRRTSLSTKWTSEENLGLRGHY
# [12] = A Cell Based Assay for the Identification of Probe candidate Compounds with Anti- Venezuelan Equine Encephalitis virus. [Related pubchem assays: 2409, 2419, 1621, 2238, 2405, 2024, 2065, 2402, 2414, 1635, 1650, 2244 ]; type: functional
# [13] = system: Vero; assay: cytotoxicity of synthesized analogs in Vero 76, SAR follow-up, cytotoxicity control for West Nile virus antiviral project, Vero 76 cells (AID 2414); type: functional; settings: Chlorocebus sabaeus
# [14] = system: Vero; assay: West Nile virus CPE inhibition, SAR follow-up, cell-based, synthesized analogs (AID 2238); type: functional; settings: Chlorocebus sabaeus
# [15] = system: Vero; assay: Vero E6 cell cytotoxicity, SAR follow-up, cytotoxicity control for West Nile virus antiviral project, synthesized analogs (AID 2244); type: functional; settings: Chlorocebus sabaeus
# [16] = system: Vero; assay: West Nile virus antiviral activity, cell-based, CPE readout (AID 1621); type: functional; settings: Chlorocebus sabaeus
# [17] = system: Vero; assay: cytotoxicity of synthesized analogs in Vero cells, SAR follow-up, cytotoxicity control for West Nile virus antiviral project, cell-based, set II (AID 2402); type: functional; settings: Chlorocebus sabaeus
# [18] = target: T3, Coagulation factor XII (Homo sapiens, UniProt P00748); assay: FXIIa inhibitor potency, concentration-response, biochemical (AID 716); type: functional
# T3 sequence (P00748 whole entry): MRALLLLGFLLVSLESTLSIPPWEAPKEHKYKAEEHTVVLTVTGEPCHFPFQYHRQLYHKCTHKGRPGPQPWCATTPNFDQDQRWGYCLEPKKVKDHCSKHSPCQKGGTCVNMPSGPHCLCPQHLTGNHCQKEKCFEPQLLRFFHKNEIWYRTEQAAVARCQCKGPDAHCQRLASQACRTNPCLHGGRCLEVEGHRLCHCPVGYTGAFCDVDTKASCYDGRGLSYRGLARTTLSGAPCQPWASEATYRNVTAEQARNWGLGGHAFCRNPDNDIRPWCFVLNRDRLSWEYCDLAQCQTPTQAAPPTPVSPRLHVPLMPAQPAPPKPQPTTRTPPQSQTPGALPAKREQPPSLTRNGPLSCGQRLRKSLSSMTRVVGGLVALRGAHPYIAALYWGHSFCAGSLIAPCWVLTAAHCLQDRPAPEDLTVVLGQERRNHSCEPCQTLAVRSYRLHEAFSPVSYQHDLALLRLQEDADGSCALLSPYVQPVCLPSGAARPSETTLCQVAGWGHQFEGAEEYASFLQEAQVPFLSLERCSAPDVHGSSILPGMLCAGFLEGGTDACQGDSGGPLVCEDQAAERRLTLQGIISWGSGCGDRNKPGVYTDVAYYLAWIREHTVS
# [19] = target: T3, Coagulation factor XII; assay: Factor XIIa Dose Response Confirmation from Single Well HTS. [Related pubchem assays (depositor defined):AID701]; type: functional
# [20] = target: CAAX prenyl protease 2 (Saccharomyces cerevisiae S288c, UniProt Q03530); type: biochemical
# [21] = target: Hexokinase (Trypanosoma brucei, UniProt Q38C41); assay: Confirmation assay for inhibitors of Trypanosoma brucei hexokinase 1-Analogue-first series. [Related pubchem assays (depositor defined):AID1430, AID1632, AID2516, AID2560, AID2579, AID2600, AID449725, AID492951]; type: functional
# [22] = target: Arf-GAP with SH3 domain, ANK repeat and PH domain-containing protein 1 (Homo sapiens, UniProt Q9ULH1); type: functional;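 note: biochemical fluorescence polarization dose–response screen measuring inhibition of ASAP1; ASAP1 GAP domain stimulating GTP hydrolysis by truncated human ARF1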
# [23] = target: T4, Endoribonuclease toxin MazF (Escherichia coli K-12, UniProt P0AE70); assay: MazF toxin RNase activators, dose response, biochemical, fluorescence, single-stranded RNA substrate, uHTS hits (AID 588481); type: functional
# T4 sequence (P0AE70 whole entry): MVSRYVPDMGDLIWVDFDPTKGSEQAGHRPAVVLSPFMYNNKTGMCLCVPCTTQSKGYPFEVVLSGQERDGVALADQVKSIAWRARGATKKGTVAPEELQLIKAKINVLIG
# [24] = target: G-protein coupled receptor 55 (Homo sapiens, UniProt Q9Y2T6); assay: GPR55 agonists via beta-arrestin recruitment, primary screen, imaging, U2OS cells, beta-arrestin-GFP redistribution (AID 1961); type: functional
# [25] = target: T5, Ubiquitin-conjugating enzyme E2 N (Homo sapiens, UniProt P61088); type: functional;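 note: Dose-response confirmation in a TR-FRET assay detecting UBC13-driven polyubiquitin chain formation, inhibition measured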
# T5 sequence (P61088 whole entry): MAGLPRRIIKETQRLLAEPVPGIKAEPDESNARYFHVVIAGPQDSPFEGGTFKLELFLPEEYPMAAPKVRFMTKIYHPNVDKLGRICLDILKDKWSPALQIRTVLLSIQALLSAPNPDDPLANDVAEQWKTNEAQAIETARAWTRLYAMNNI
# [26] = target: Neurotensin receptor type 1 (Homo sapiens, UniProt P30989); type: functional;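 note: Image-based confirmatory dose-response assay measuring agonist activity at NTR1; NTR1-expressing U2OS osteosarcoma cells imaged for beta-arrestin GFP spot formation; agonist potency where compounds increase beta-arrestin recruitment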
# [27] = target: T4, Endoribonuclease toxin MazF; assay: fluorescent RNA oligo signal without MazF, dose response, counter-screen for MazEF activator project, biochemical, fluorescence, single-stranded RNase substrate (AID 588502); type: functional
# [28] = growth suppression of PTEN-null colon cells, dose response, cell-based, HCT116 PTEN knockout (AID 1047); type: functional;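 note: HCT116 colon tumor cells with PTEN knocked out; cells exposed to compound for 60 hours before readout; potency for loss of cell viability measured by luminescence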
# [29] = growth suppression of beta-catenin-knockout colon cells, dose response, cell-based, HCT116, human colon tumor (AID 1045); type: functional;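 note: HCT116 colon tumor cells with beta catenin knocked out; cells exposed to compound for 60 hours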
# [30] = target: Dual specificity protein phosphatase 3 (Homo sapiens, UniProt P51452); assay: SAR VHR1 Fluorescent Assay for In Vitro dose response studies Set 2. [Related pubchem assays (depositor defined):AID1654, AID1661, AID1878]; type: functional
# [31] = target: T6, Tyrosine-protein phosphatase non-receptor type 7 (Homo sapiens, UniProt P35236); assay: SAR analysis of chemical inhibitors of HePTP using a Fluorescent assay - Set 2. [Related pubchem assays (depositor defined):AID1059, AID1077, AID1661, AID2085, AID521]; type: functional
# T6 sequence (P35236 whole entry): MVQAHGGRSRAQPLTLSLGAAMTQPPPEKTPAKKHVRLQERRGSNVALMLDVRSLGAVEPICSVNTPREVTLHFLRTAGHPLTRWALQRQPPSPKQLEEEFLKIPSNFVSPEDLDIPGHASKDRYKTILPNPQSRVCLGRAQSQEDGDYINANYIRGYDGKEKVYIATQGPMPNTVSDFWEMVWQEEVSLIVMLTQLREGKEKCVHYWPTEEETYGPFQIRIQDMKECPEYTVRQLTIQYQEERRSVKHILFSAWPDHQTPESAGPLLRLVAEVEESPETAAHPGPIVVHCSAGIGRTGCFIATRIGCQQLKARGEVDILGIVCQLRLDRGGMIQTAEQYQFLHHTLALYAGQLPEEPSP
# [32] = target: Mu-type opioid receptor (Homo sapiens, UniProt P35372); assay: SAR Analysis of Antagonists of the MOR Receptor using an Image-Based Assay - Set 3. [Related pubchem assays (depositor defined):AID1777, AID1785, AID1786, AID1966, AID2133, AID2136, AID2284, AID2285, AID2420]; type: functional
# [33] = target: T7, Kappa-type opioid receptor (Homo sapiens, UniProt P41145); assay: SAR analysis of small molecule antagonists of the kappa opioid receptor via a luminescent beta-arrestin assay - Set 3. [Related pubchem assays (depositor defined):AID1777, AID1778, AID1785, AID1786, AID1966, AID2133, AID2136, AID2285, AID2495]; type: functional
# [34] = target: Delta-type opioid receptor (Homo sapiens, UniProt P41143); assay: SAR Analysis of Antagonists of the DOR Receptor using an Image-Based Assay - Set 3. [Related pubchem assays (depositor defined):AID1777, AID1785]; type: functional;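 note: U2OS cells expressing DOR1 and beta-arrestin GFP stimulated with 100 nM SNC80; imaging of GFP-tagged beta-arrestin moving into spots after receptor activation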
# [35] = target: T7, Kappa-type opioid receptor; assay: SAR analysis of Antagonists of the Kappa Opioid Receptor (KOR) using an Image-Based Assay - Set 3. [Related pubchem assays (depositor defined):AID1777, AID1785]; type: functional
# [36] = target: Intestinal-type alkaline phosphatase (Homo sapiens, UniProt P09923); assay: Dose Response confirmation of uHTS hits from a small molecule inhibitors of human intestinal alkaline phosphatase via a luminescent assay. [Related pubchem assays (depositor defined):AID2544, AID2574]; type: functional
# Sequence of Intestinal-type alkaline phosphatase (P09923 whole entry): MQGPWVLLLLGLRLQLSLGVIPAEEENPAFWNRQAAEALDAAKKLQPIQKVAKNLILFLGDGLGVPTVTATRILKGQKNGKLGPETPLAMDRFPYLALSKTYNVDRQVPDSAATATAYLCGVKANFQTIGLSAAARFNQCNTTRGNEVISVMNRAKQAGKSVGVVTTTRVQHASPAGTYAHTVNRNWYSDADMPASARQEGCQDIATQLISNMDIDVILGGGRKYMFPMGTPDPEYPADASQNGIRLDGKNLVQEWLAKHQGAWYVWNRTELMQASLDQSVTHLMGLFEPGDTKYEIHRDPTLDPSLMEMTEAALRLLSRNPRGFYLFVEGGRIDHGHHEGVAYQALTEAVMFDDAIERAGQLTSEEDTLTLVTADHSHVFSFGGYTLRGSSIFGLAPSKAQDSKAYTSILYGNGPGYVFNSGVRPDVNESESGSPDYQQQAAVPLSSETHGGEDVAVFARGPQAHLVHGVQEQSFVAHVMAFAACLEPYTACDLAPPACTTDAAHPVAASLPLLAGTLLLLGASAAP
# T7 sequence (P41145 whole entry): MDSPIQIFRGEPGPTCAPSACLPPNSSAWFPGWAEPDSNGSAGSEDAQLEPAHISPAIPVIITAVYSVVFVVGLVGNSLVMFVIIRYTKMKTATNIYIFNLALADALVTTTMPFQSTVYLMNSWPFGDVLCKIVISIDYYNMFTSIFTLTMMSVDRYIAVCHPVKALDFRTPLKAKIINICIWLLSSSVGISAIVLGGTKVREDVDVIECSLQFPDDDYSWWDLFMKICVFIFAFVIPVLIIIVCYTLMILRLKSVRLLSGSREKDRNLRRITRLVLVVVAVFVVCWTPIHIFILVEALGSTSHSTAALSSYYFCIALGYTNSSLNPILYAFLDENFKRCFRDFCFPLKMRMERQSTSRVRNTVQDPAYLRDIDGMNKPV
# Sequence of Mu-type opioid receptor (P35372 whole entry): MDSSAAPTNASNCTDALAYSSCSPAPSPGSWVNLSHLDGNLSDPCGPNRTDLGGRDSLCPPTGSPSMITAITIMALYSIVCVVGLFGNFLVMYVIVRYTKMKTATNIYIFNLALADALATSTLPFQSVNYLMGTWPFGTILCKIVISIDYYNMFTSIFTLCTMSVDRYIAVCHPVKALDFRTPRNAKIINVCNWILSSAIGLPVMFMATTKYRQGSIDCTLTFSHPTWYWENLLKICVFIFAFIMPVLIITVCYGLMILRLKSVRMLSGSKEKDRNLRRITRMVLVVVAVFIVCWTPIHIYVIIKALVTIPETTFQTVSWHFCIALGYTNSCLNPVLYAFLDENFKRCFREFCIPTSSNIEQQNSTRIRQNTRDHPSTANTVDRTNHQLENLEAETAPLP
# Sequence of Neurotensin receptor type 1 (P30989 whole entry): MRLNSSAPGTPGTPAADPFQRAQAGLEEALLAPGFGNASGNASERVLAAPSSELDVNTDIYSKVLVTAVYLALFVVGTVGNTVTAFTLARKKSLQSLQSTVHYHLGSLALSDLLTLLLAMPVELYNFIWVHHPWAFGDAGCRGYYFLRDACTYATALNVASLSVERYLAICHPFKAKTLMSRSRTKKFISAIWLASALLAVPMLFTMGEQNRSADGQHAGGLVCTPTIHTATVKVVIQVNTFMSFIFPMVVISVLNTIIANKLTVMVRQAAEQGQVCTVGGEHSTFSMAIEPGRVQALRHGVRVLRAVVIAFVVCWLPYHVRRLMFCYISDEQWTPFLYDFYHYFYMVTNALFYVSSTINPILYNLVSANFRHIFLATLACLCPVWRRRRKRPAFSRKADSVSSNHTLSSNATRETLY
# Sequence of G-protein coupled receptor 55 (Q9Y2T6 whole entry): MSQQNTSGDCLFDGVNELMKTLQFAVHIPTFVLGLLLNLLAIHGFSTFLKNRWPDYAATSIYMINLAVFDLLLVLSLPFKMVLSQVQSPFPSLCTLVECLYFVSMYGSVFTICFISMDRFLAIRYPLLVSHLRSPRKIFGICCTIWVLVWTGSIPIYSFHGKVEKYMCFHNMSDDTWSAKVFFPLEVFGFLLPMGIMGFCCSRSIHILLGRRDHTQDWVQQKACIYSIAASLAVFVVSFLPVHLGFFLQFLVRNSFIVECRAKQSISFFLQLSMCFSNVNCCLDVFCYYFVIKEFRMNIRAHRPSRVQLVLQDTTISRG
# Sequence of CAAX prenyl protease 2 (Homo sapiens, UniProt Q9Y256) (Q9Y256 whole entry): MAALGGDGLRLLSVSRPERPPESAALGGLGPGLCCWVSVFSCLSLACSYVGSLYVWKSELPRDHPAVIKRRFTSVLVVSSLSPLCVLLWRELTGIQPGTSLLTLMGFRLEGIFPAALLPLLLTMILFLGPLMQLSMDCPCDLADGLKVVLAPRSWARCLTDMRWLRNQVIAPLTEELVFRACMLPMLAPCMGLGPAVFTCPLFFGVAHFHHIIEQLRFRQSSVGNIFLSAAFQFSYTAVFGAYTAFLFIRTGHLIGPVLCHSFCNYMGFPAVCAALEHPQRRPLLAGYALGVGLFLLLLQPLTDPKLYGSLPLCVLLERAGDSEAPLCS
# Sequence of Hexokinase (Q38C41 whole entry, the tested form may be a part): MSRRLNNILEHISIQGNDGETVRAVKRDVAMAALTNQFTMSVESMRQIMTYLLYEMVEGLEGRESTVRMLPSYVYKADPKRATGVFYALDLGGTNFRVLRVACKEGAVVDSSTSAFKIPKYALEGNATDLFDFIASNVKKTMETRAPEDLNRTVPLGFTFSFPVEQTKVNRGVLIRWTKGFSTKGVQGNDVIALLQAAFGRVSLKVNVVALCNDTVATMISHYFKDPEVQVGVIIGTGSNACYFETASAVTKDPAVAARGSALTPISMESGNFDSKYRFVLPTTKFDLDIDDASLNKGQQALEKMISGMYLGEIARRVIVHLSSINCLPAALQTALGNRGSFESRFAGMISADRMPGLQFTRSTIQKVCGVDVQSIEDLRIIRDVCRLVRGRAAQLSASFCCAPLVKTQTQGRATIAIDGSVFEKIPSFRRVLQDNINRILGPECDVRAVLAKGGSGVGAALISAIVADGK
# Sequence of Delta-type opioid receptor (P41143 whole entry): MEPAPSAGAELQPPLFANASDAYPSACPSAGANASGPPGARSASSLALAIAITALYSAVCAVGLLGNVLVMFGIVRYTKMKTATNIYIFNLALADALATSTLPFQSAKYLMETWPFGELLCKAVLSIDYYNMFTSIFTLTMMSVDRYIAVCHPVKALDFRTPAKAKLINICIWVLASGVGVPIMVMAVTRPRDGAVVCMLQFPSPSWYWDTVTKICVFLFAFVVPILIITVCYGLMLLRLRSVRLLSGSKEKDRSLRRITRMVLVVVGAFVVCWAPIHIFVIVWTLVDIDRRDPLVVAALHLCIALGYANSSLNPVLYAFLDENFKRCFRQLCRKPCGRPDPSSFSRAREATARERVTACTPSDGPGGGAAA
# Sequence of Dual specificity protein phosphatase 3 (P51452 whole entry): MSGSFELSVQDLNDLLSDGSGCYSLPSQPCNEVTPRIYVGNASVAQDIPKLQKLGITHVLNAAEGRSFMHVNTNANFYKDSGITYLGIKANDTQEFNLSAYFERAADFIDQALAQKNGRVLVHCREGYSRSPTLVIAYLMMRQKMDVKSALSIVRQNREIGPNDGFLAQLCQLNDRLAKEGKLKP
# Sequence of Trypsin (P00761 whole entry): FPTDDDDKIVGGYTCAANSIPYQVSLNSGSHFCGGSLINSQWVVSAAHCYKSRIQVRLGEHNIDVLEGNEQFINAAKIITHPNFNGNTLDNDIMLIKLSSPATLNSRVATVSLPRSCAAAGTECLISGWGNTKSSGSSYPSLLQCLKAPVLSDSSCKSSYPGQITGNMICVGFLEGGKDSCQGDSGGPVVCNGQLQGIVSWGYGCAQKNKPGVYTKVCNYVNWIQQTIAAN
# Sequence of CAAX prenyl protease 2 (Saccharomyces cerevisiae S288c, UniProt Q03530) (Q03530 whole entry): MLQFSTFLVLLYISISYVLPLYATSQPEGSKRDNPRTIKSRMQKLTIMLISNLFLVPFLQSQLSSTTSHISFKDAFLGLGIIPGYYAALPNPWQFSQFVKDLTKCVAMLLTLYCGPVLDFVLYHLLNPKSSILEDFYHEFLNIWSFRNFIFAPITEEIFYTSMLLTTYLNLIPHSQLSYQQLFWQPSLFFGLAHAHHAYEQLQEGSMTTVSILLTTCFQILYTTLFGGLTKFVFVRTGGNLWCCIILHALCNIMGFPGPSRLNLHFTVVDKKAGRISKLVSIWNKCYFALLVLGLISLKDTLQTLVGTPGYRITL
smiles,measurement,setting,value
Cc1csc(NC(=O)c2ccccc2O)n1,AC50,[1],19.3 µM (active)
same,AC50,[2],> 100 µM (inactive)
COc1cc(/C=C2/C(=O)ON=C2C)ccc1OCc1ccccc1F,EC50,[3],39.6 µM (active)
same,EC50,[4],0.127 µM (active)
same,EC50,[5],60.2 µM (active)
same,CC50,[6],22.3 µM (active)
same,EC50,[7],> 120 µM (not active)
same,EC50,[8],10.3 µM (active)
same,EC50,[9],2.06 µM (active)
same,EC50,[10],0.901 µM (active)
same,EC50,[11],> 300 µM (inconclusive)
CC1CCCN(CCCNC(=O)c2cc3c(s2)-c2ccccc2OC3)C1 (configuration not stated),IC50,[12],9.94 µM (active)
same,CC50,[13],19.6 µM (active)
same,CC50,[6],> 25 µM (active)
same,IC50,[14],> 40 µM (active)
same,CC50,[15],6.78 µM (active)
same,IC50,[16],18.9 µM (active)
same,CC50,[17],9.23 µM (active)
Cc1nnc(NC(=O)C2CCN(c3cnccn3)CC2)s1,IC50,[18],> 50 µM (inactive)
O=C(Oc1nsnc1N1CCOCC1)c1ccccc1,IC50,[19],4.38 µM (active)
CS(=O)(=O)Nc1ccccc1C(=O)NC1CC2CCC1C2 (configuration not stated),AC50,[20],3.03 µM (active)
O=C(Nc1ccccc1)c1cc(F)ccc1S,IC50,[21],> 25 µM (inactive)
COc1cc2c3nnc(-c4ccc(F)cc4)c-3cn(Cc3ccccc3)c2cc1OC,IC50,[22],19.2 µM (inactive)
same,EC50,[23],> 99 µM (inactive)
same,EC50,[24],0.921 µM (active)
same,IC50,[25],> 20 µM (inactive)
same,EC50,[26],2.91 µM (active)
same,EC50,[27],> 99 µM (inactive)
same,EC50,[28],5.91 µM (active)
same,EC50,[29],5.84 µM (active)
Cc1ccc(-n2c(N)c(C(=O)N3CCOCC3)sc2=S)cc1,IC50,[30],> 100 µM (inactive)
same,IC50,[31],> 100 µM (inactive)
CCc1ccc(S(=O)(=O)NCc2ccc(C(=O)NCCN(Cc3ccc(OC)cc3)C(C)C)cc2)cc1,IC50,[32],> 32 µM (inactive)
same,IC50,[33],0.873 µM (active)
same,IC50,[34],> 32 µM (inactive)
same,IC50,[35],0.264 µM (active)
Cc1cccc(SCc2noc(C(=O)NCC3CCCO3)c2C(=O)O)c1 (configuration not stated),IC50,[36],> 100 µM (inactive)
